For the first assay, the system named is mAb M75. Put plainly: Competition ELISA with mAb M75 (antigen competing for M75, Figure 3). It is filed as binding. As to conditions: GST-MN 10 ng ml-1 adsorbed; mAb M75 ascites fluid final dilution 10-6; antibody + antigen mixtures adsorbed 1.5 h; peroxidase/OPD read-out.
On to “D: GGSSGEDDPLGEEDLPSEEDSPC (aa 51-72 of the PG region)”, for which the “50% inhibition concentration in competition ELISA with M75” value was 1 ng/mL.
On the same count and under the same terms, under “F: EDPPGEEDLPGEEDLPGEEDLPEVC (aa 75-98 of the PG region)” stands 1 ng/mL.

The same assay, now with this note: GST-MN adsorbed; mAb M75 ascites 10-6.
For the substance EVKPKSEEEGSLKLE [Peptide G], the “serological activity in competition ELISA with M75 (in words)” value was “inactive”.
The same measure, in the same setting: to N: oligopeptide 7 + 2 aa APGEEDLPA belongs “minimum serologically active sequence”.

Still in this assay, the particulars now being: compared with peptides D and F (50% inhibition at 1 ng ml-1).
Consider GEEDLPSEEDSPREEDPPGEEDLPGEC [Peptide E], for which the “fold less active than peptides D and F in competition ELISA” value came out at 1000 x.

The same assay, now with this note: peptide at 100 g ml-1 (so in the source); C-terminal amide.
Regarding ADLPGEEA [6 + 2 aa permutation], the “competition in ELISA with M75 at 100 g ml-1” value is given as “negative”.
On the same count and under the same terms, under ADLPGEEDA [oligopeptide 7 + 2 aa] stands “negative”; under AEDLPGEA [6 + 2 aa permutation], “negative”; under AEDLPGEEA [oligopeptide 7 + 2 aa], “negative”.
On the same count and under the same terms, to AEEDLPGA [6 + 2 aa permutation] belongs “negative”; to AEEDLPGEA [oligopeptide 7 + 2 aa], “negative”; to AGEEDLPA [6 + 2 aa permutation], “negative”.
Consider ALPGEEDA [6 + 2 aa permutation], for which the “competition in ELISA with M75 at 100 g ml-1” value is on record as “negative”.
The same measure, in the same setting: under ALPGEEDLA [oligopeptide 7 + 2 aa] stands “negative”.
The same measure, in the same setting: to APGEEDLA [6 + 2 aa permutation] belongs “negative”.

For another assay, the system named is adhesion of CGL1 cells to MN/CA IX. Description: Inhibition of cell adhesion to MN/CA IX dots by oligopeptides added to the media with the cell suspension (Figure 4B). It is filed as cell-based, human. As to conditions: nonapeptides 7 + 2 aa, C-terminal alanine amide, absorbance at 630 nm of stained attached cells.
As for “1: AKKMKRRKA, selected from phage display library on peptide F, eluted with M75 [compound 1]”, the “activity in cell adhesion inhibition of phage display-selected peptides (in words)” value was “less active”.
On the same count and under the same terms, under “2: AITFNAQYA, selected from phage display library on peptide F, eluted with M75 [compound 2]” stands “highest activity”; under “3: ASASAPVSA, selected from phage display library on peptide F, eluted with M75 [compound 3]”, “marginally posi- tive only in ELISA”.

The next assay has as its target T1, M75 epitope of immobilized GST-MN (Homo sapiens, UniProt Q16790).
T1 construct: made in house; host or cells: bacteria
Description: Competition ELISA, peptides binding to the epitope of immobilized GST-MN (Figure 4A). As to conditions: nonapeptides 7 + 2 aa, C-terminal alanine amide. In general terms: ELISA stands for enzyme-linked immunosorbent assay.
As for “1: AKKMKRRKA, selected from phage display library on peptide F, eluted with M75 [compound 1]”, the “activity in competition ELISA of phage display-selected peptides (in words)” value is on record as “less active”.
Still for that read-out and setting: under “2: AITFNAQYA, selected from phage display library on peptide F, eluted with M75 [compound 2]” stands “highest activity”; under “3: ASASAPVSA, selected from phage display library on peptide F, eluted with M75 [compound 3]”, “marginally posi- tive”.

Values taken from article PMC2363230, “Human tumour-associated cell adhesion protein MN/CA IX: identification of M75 epitope and of the region mediating cell adhesion” (British Journal of Cancer, 2000).
